Data reported in US20210221791A1, “COMPOUNDS” (UNIVERSITETET I OSLO, priority 2016, published 2021).
“And” between values parts separate entries of the source, which are not always exact repeats. Equal values may be shown once. “Also recorded” adds a separate entry of the source. Where a name gives a salt, the structure may show the parent alone. Read-outs that look alike come from different tables or passages of the source. Blank lines part the entries; values can stand above or below the compound they belong to.

Assays:
[1] = test system: meropenem-resistant E. coli; assay: Checkerboard MIC assay of Example 26 and meropenem; assay type: cell-based; conditions: for some of the E. coli / K. pneumonia strains
Experimental: A checkerboard MIC assay was using the broth dilution method according to CLSI guidelines. […] Dilutions to 4 mg/ml was performed by adding+4.75 ml sterile saline to 0.25 ml of the stock solution, and dilutions to 512 μg/ml was performed by adding 10.9 ml MH-broth to the 4 mg/ml solution. Inoculums of bacterial strains as described in Table 4 were prepared by suspending fresh overnight colonies from 5% horse blood agar were to a turbidity of 0.5 McFarland and further diluted to 1×10^6 CFU/ml in MH-broth. Aliquots of 50 μl of MH-broth were added to each well of polystyrene microtiter plates. […] The plates were incubated at 35° C., 16-20 hours.

[2] = test system: P. stuartii harboring an MBL; assay: MIC of meropenem on strains harboring an MBL (Example 198); assay type: cell-based; conditions: P. stuartii (NDM)
[3] = test system: K. pneumoniae K66-45 (NDM-1); assay: Microbroth dilution MIC of carbapenem with/without inhibitor; assay type: cell-based; conditions: for MIC Value in K66-45 (MIC of carbapenem): K. pneumoniae NDM-1
Experimental: (§1) • Plate bacterial strain(s) on appropriate media: • Gram-negative bacteria with ESBLs or carbapenemases: green agar plates with 100 mg/L ampicillin • Gram-negative bacteria without β-lactamases: green agar plates • Gram-positive bacteria (Staphylococci and Enterococci): blood agar plates • Incubate o.n. at 37° C.
(§2) (Should be used within 15 min of preparation). • Dilute the 0.5 McFarland suspension 1:100 into MH broth. […] Plate 10 μl of the dilution on MH agar plates (×2). Incubate o.n. at 37° C., count the colonies and calculate the final CFU/ml inoculum in the plate by multiplying the average number of colonies with 10000 and divide by 2. The final inoculum should be between 3-7×10^5 CFU/ml. • Add 50 μl of the prepared bacterial suspension to each well in the microtiter plate except negative growth control.
(§3) • Calculate the desired concentration-range and volume of the compounds/antibiotics in the assay. […] Dilute the stock solution in MH broth. Make subsequent 2-fold dilutions in MH broth of the desired concentrations if a concentration range is to be tested (remember the extra dilution factor in the assay plate). Always include extra volume for pipetting. Take into consideration stock solutions that are made in buffers that have an effect on bacterial growth (e.g. DMSO).

[4] = test system: strains producing Klebsiella pneumoniae carbapenemases (KPC); assay: Adjuvant activity with a carbapenem against KPC producers; assay type: cell-based; conditions: adjuvant together with a carbapenem
[5] = test system: resistant clinical isolate of Klebsiella pneumoniae harboring NDM-1; assay: Time-kill study with meropenem; assay type: cell-based
Experimental: Mueller-Hinton broth (MHB) was warmed from fridge temperature cold. […] A sample of Example 26 was dissolved in DMSO.
The 96-well plates were prepared using a multi-channel pipette, adding […] PBS to columns 2-9, or the required number of dilutions needed in the experiment. Each Inoculum was prepared by picking a single colony from the fresh plate that was disperged into 1 mL MHB, the loop was agitated to ensure all the colony comes off the loop. The tube was Vortex mixed, and a 100 μL aliquot was taken from the tube into 9.9 mL of MHB into the media bottle. […] The procedure was repeated for as many samples needed in the study. Aliquots of 5 mL inoculum were transferred to as many media bottles as needed, e.g. 4 mg/L MEM, 4 mg/L MEM+50 μM test substance, 4 mg/L MEM+100 μM test substance. Then […] aliquots were taken from each culture and added to Column 1 on the 96 well plate, e.g. culture 1: 50 μl into A1, […] into B1 etc. for time point 0 h. Then […] MEM was added into each bottle, followed by the required amount of test substance. The bottles were mixed gently to avoid formation of bubbles, and incubated in a secondary container at 37° C. at 180 rpm. Finally, serial dilutions were performed using multi-channel pipette taking 30 μL for column 1, adding to column 2, mixing well, repeating from column 2 to 3 with clean pipette tips.

[6] = Solution stability measured indirectly by MIC studies; assay type: physicochemical; conditions: stored up to 8 months at 2-8° C.; 25 mg/L inhibitor; P. aeruginosa VIM-2 and K. pneumonia NDM-1
From the text: P. aeruginosa harboring VIM-2 and K. pneumonia bearing NDM-1 was used as two indicator strains.

VIM-2 = VIM-2 (Escherichia coli, UniProt Q5U7L7); assay type: biochemical
Experimental: The eluent used was Chelex-treated HEPES 50 mM buffer, pH 7.5. […] In all experiments, 16 aliquots of 250 μL were taken from the PD-10 column runsout and enzyme activity was analysed. Enzyme activity was measured by adding Nitrocefin as a reporter substrate (final concentration of 50 μM).
To investigate if more extreme time-dependent and concentration-dependent conditions could restore enzyme activity, aliquots having final concentrations of 30 nM column-treated enzyme and 1000 μM Zn^2+ on ice and at room temperature over prolonged time.

[7] = test system: human serum albumin and α1-acid glycoprotein (AGP); conditions: 500 μM Example 26; HSA:AGP 24:1 up to 140 μM
rH glyoxylase II = rH glyoxylase II (Homo sapiens, UniProt Q16775); assay: Interaction with zinc-containing human enzyme; assay type: biochemical; conditions: 62.5-500 μM, 30 min, 25° C., 0.4 ng/μL enzyme
Experimental: The initial reaction velocity was measured at 405 nm. EDTA was included as a representative example of the APC chelator class described above.

[8] = test system: Klebsiella pneumoniae strain 50752501 harbouring NDM-1; assay: In vivo infection study in neutropenic mice; parameters: species or system Klebsiella pneumoniae; host NMRI mice; conditions: for Score at sampling: sampling T = 5 h
Experimental: The purpose of this study was to investigate the synergy between a typical example of the present invention and a state of art carbapenem in a clinically relevant multiresistant Gram-negative bacterial strain harboring a metallo-β-lactamase in the treatment of live mice infected with the bacterial strain.
The mice were rendered neutropenic by injecting 0.5 ml cyclophosphamide solution intraperitoneally 4 days (approximately 200 mg/kg) and 1 day (approximately 100 mg/kg) prior to inoculation.
Fresh overnight colonies from a 5% Horse Blood Agar plate were suspended and diluted in sterile saline to approximately and 10^7 CFU/ml. Mice were inoculated intraperitoneally with 0.5 ml of the suspension. Approximately ½ hr prior to inoculation, mice were treated orally with 45 μl neurophen (20 mg ibuprofen/ml corresponding to approximately 30 mg/kg) as a pain relief.
Mice were treated subcutaneously in the neck region with.
Colony counts were determined from blood and peritoneal fluid at 1 and 5 hrs post inoculation. […] The mice were sacrificed immediately after blood sampling and a total of 2 ml sterile saline was injected i.p. and the abdomen gently massaged before it was opened and fluid sampled with a pipette. Each sample was then 10 fold serial diluted in saline and 20-μl spots, ranging from undiluted to a 10^6 dilution, were applied on agar plates in duplicates. […] All agar plates were incubated 18-22 hrs at 35° C. in ambient air.

[9] = test system: resistant gram-negative MBL-based bacteria; assay: MICx: lowest adjuvant concentration giving carbapenem MIC ≤2 mg/L; assay type: cell-based; conditions: 25 mg/L Example 26; K66-45 and K34-7; meropenem and doripenem
[10] = test system: P. aeruginosa K34-7 (VIM-2); assay: Microbroth dilution MIC of carbapenem with/without inhibitor; assay type: cell-based
Experimental: as §1, §2, §3

[11] = test system: C. freundii harboring an MBL; assay: MIC of meropenem on strains harboring an MBL (Example 198); assay type: cell-based; conditions: C. freundii (NDM)
[12] = test system: K. pneumoniae harboring an MBL; assay: as above; assay type: cell-based; conditions: K. pneumoniae (NDM); each table line a different strain
K. pneumoniae K66-45 = assay type: cell-based; conditions: inhibitor 25 mg/L
Experimental: After plating and grown overnight at 37° C., only single colonies, ignoring any touching the edges of the plate, were counted.
10^9 CFU K66-45 (Mueller-Hinton broth, no selection) was plated and grown overnight, 37° C. Only single colonies, ignoring any touching the edges of the plate, were counted.

SMILES: CN(C[C@H](O)[C@@H](O)[C@H](O)[C@H](O)CO)C(=O)c1ccc(CN(Cc2ccccn2)Cc2ccccn2)nc1 [Example 26, 6-((bis(pyridin-2-ylmethyl)amino)methyl)-N-methyl-N-((2S,3R,4R,5R)-2,3,4,5,6-pentahydroxyhexyl)nicotinamide]
amplification of the effect of meropenem [1]: > 1000 times
MIC meropenem + 25 mg/L Example 26 / Example 195 [2]: 0.25 µg/mL
MIC Value in K66-45 (MIC of carbapenem) ([3]; doripenem (DOR) + 25 mg/L Example 26, batches 1-3): 0.25 µg/mL and 0.125 µg/mL
MIC Value in K66-45 (MIC of carbapenem) ([3]; meropenem (MEM) + 25 mg/L Example 26, batches 1-3): 0.125 µg/mL and 0.25 µg/mL
activity against KPC-producing strains [4]: does not show activity
time after which CFU drops to below the limit of detection (LOD) ([5]; Example 26 + 4 mg/L meropenem, irrespective of Example 26 concentration, stays below LOD for 30 hrs): 5 to 10 h
solution stability (adjuvant activity in MIC studies after storage) [6]: no loss of activity even after 8 months storage time
enzyme activity restored by ZnSO4 (VIM-2; 15 nM impaired VIM-2 from Example 207C spiked with 0-100 μM ZnSO4): 40%
irreversibility of VIM-2 inhibition (VIM-2; purified VIM-2, PD-10 column, EDTA at 100 μM): irreversibly inhibits VIM-2; also recorded: irreversibly inhibited
effect of protein binding on inhibitory activity on VIM-2 [7]: protein binding is not affecting the inhibitory activity
interaction with rH glyoxylase II (rH glyoxylase II): does not interact with rH glyoxylase II
reduction of the CFU levels compared to vehicle treatment ([8]; 10-100 mg/kg Example 26 alone, blood and peritoneal fluid): did not result in reduction of the CFU levels
Score at sampling ([8]; Example 26 10 mg/kg s.c. + meropenem 33 mg/kg, mice 5-8): 2
Score at sampling ([8]; Example 26 10 mg/kg s.c. + vehicle, mice 17-20): 2
Score at sampling ([8]; Example 26 33 mg/kg s.c. + meropenem 33 mg/kg, mice 9-12): 1
Score at sampling ([8]; Example 26 33 mg/kg s.c. + vehicle, mice 21-24): 1
Score at sampling ([8]; Example 26 100 mg/kg s.c. + meropenem 33 mg/kg, mice 13-16): 1
Score at sampling ([8]; Example 26 100 mg/kg s.c. + vehicle, mice 25-28): 1
lower CFU levels compared to vehicle treatment ([8]; combination Example 26 (10-100 mg/kg) and meropenem 33 mg/kg, blood): 3.95-4.38 log10
lower CFU levels compared to vehicle treatment ([8]; combination Example 26 (10-100 mg/kg) and meropenem 33 mg/kg, peritoneal fluid): 3.57-3.66 log10
potentiates carbapenems with a factor [9]: 32-256 times

MIC of meropenem ([10]; P. aeruginosa K34-7 (VIM-2), inhibitor 50 μM): 1
SMILES: OC1O[C@H](Cn2cc(CN(CCN(Cc3ccccn3)Cc3ccccn3)Cc3ccccn3)nn2)[C@H](O)[C@H](O)[C@H]1O (some centres unmarked) [Example 91]

SMILES: C[C@@H](N)C(=O)N[C@H](C)C(=O)NCCc1ccc(NC(=O)c2ccc(CN(Cc3ccccn3)Cc3ccccn3)nc2)cc1 [Example 195, N-(4-(2-((R)-2-((R)-2-aminopropanamido)propanamido)ethyl)phenyl)-6-((bis(pyridin-2-ylmethyl)amino)methyl)nicotinamide hydrochloride, reference compound]
MIC meropenem + 25 mg/L Example 26 / Example 195 [11]: 0.06 µg/mL
MIC meropenem + 25 mg/L Example 26 / Example 195 [12]: 0.06 µg/mL
MIC meropenem + 25 mg/L Example 26 / Example 195 [2]: 0.25 µg/mL
RF - no of colonies (K. pneumoniae K66-45; MEM 2 mg/L): nc (n.c. = no colonies)
RF - no of colonies (K. pneumoniae K66-45; MEM 4 mg/L): nc (n.c. = no colonies)
RF - no of colonies (K. pneumoniae K66-45; MEM 8 mg/L): nc (n.c. = no colonies)
solution stability (adjuvant activity in MIC studies after storage) [6]: a loss of activity was observed after 5 months storage, and after 8 months the activity was absent

SMILES: C[C@@H](O)[C@H]1C(=O)N2C(C(=O)O)=C(S[C@@H]3CN[C@H](C(=O)N(C)C)C3)[C@H](C)[C@H]12 [meropenem, reference compound]
MIC value in K34-7 (MIC of carbapenem) ([10]; carbapenem alone, P. aeruginosa VIM-2): 32 to 64 µg/mL
MIC ([3]; Klebsiella pneumoniae, read-out: MIC of MEM in the absence of Example 26, K. pneumoniae K66-45): > 32 µg/mL
MIC Value in K66-45 (MIC of carbapenem) ([3]; carbapenem alone): 32 to 64 µg/mL
time after which CFU starts to increase ([5]; 4 mg/L meropenem alone, grows beyond starting CFU count): about 5 hours
lower CFU levels compared to vehicle treatment ([8]; meropenem alone 33 mg/kg, blood): 2.5 log10
lower CFU levels compared to vehicle treatment ([8]; meropenem alone 33 mg/kg, peritoneal fluid): 2.2 log10
